Patent publication US7635716B2, “Substituted cyclopentanes or cyclopentanones as therapeutic agents” (Allergan, Inc., priority 2005, dated 2009)
Where two headings read alike, the source gives them in different places.

Key:
hEP2/Gqs5 = target: T1, hEP2/Gqs5 (Homo sapiens, UniProt P43116); assay: FLIPR calcium signal, HEK-293(EBNA) cells; format: cell-based
T1 construct: expressed in transfected cells; host or cells: HEK-293(EBNA) cells
In short: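 Peak Fluo-4 fluorescence (2 µM dye loading, 45 min) was recorded in HEK-293(EBNA) cells stably expressing each human receptor, in HBSS-HEPES pH 7.4 at 37 °C. Signals were expressed relative to buffer and standard agonist controls: PGE2 (EP2, EP4), PGF2 (FP), carbacyclin (IP). Compounds were tested at 10^−5 M or from 10^−5 to 10^−11 M, in duplicate, n≧3.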

hEP2 = hEP2 (Homo sapiens, UniProt P43116); assay: Competition binding, [3H]PGE2, HEK 293 cells stably expressing human EP2 receptors; parameters: expressed in transfected cells; host or cells: HEK 293 cells (membranes or whole cells)
Chain of hEP2 (P43116 whole entry): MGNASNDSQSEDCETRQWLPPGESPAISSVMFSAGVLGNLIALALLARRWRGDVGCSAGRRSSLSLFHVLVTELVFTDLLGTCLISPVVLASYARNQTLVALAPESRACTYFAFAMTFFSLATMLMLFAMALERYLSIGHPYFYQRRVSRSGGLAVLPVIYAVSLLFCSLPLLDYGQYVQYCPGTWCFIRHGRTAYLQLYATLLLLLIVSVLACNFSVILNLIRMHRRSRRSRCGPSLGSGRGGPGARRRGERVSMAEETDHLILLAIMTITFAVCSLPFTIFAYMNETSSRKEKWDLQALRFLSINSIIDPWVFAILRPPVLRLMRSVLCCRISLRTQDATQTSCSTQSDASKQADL
Experimental: Competition binding experiments were performed in a medium containing Hank's balanced salt solution, Hepes 20 mM, pH 7.3, membranes (˜60 μg protein) or 2×10^5 cells from HEK 293 cells stably expressing human EP2 receptors, [^3H]PGE2 (10 nM) and various concentrations of test compounds in a total volume of 300 μL. Reaction mixtures were incubated at 23° C. for 60 min, and were filtered over Whatman GF/B filters under vacuum. Filters were washed three times with 5 ml ice-cold buffer containing 50 mM Tris/HCl (pH 7.3). Non-specific binding was estimated in the presence of excess unlabeled PGE2 (10 μM). Binding data fitted to the binding model for a single class of binding sites, using nonlinear regression analysis. IC50 values thus obtained were converted to Ki using the equation of Ki=(IC50/(1+[L]/KD) where [L] represents PGE2 concentration (10 nM) and KD the dissociation constant for [^3H]PGE2 at human EP2 receptors (40 nM).
(§1) HEK-293 cells stably expressing the human or feline FP receptor, or EP1, EP2, or EP4 receptors were washed with TME buffer, scraped from the bottom of the flasks, and homogenized for 30 sec using a Brinkman PT 10/35 polytron. TME buffer was added to achieve a final 40 ml volume in the centrifuge tubes (the composition of TME is 100 mM TRIS base, 20 mM MgCl2, […]; 10N HCl is added to achieve a pH of 7.4).
(§2) The cell homogenate was centrifuged at 19000 r.p.m. for 20 min at 4° C. using a Beckman Ti-60 rotor. The resultant pellet was resuspended in TME buffer to give a final 1 mg/ml protein concentration, as determined by Biorad assay. Radioligand binding competition assays vs. [^3H—]17 phenyl PGF2. (5 nM) were performed in a 100 μl volume for 60 min. Binding reactions were started by adding plasma membrane fraction. The reaction was terminated by the addition of 4 ml ice-cold TRIS-HCl buffer and rapid filtration through glass fiber GF/B filters using a Brandel cell harvester. The filters were washed 3 times with ice-cold buffer and oven dried for one hour.
(§3) [^3H—] PGE2 (specific activity 180 Ci mmol) was used as the radioligand for EP receptors. [^3H] 17-phenyl PGF2α was employed for FP receptor binding studies. Binding studies employing EP1, EP2, EP4 and FP receptors were performed in duplicate in at least three separate experiments. A 200 μl assay volume was used. Incubations were for 60 min at 25° C. and were terminated by the addition of 4 ml of ice-cold 50 mM TRIS-HCl, followed by rapid filtration through Whatman GF/B filters and three additional 4 ml washes in a cell harvester (Brandel). Competition studies were performed using a final concentration of 5 nM [^3H]-PGE2, or 5 nM [^3H] 17-phenyl PGF2α and non-specific binding determined with 10^−5M of unlabeled PGE2, or 17-phenyl PGF2α, according to receptor subtype studied.

hEP4 = target: T2, hEP4 (Homo sapiens, UniProt P35408); assay: Radioligand binding, [3H]PGE2, HEK-293 cells stably expressing EP4 receptors
T2 construct: expressed in transfected cells; host or cells: HEK-293 cells (plasma membrane fraction)
T2 sequence (P35408 whole entry): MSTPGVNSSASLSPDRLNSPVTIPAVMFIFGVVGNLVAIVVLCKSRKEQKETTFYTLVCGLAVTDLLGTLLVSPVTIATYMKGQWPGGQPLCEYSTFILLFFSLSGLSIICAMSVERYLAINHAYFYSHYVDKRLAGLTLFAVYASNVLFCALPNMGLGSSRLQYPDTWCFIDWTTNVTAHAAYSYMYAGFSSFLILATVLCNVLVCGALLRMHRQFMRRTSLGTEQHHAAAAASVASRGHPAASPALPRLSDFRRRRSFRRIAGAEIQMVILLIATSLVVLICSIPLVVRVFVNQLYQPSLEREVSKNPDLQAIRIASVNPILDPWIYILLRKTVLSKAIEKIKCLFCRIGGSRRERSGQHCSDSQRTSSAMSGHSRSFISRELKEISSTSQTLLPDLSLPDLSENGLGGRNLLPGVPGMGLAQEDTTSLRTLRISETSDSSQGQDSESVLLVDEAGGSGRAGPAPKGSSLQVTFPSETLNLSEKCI
Experimental: as §1, §2
as §3, with “Binding studies employing EP1, EP2, EP4 and FP receptors were performed in duplicate in at least three separate experiments.” left out

[1] = Table 1, first part, triplicate, read-out: functional data (EC50) hEP2
[2] = Table 1, first part, triplicate, read-out: binding data (Ki) hEP2
[3] = Table 1, first part, triplicate, read-out: binding data (Ki) hEP4
[4] = Table 1, second part, read-out: hEP4 Ki
[5] = Table 1, second part, read-out: hEP2 flipr EC50
[6] = Table 1, second part, read-out: hEP2 Ki

T1 sequence (P43116 whole entry): as the sequence (P43116 whole entry) above

| Compound | EC50 (hEP2/Gqs5; [1]) | Ki (hEP2; [2]) | Ki (hEP4; [3]) | Ki (hEP4; [4]) | EC50 (hEP2/Gqs5; [5]) | Ki (hEP2; [6]) |
| --- | --- | --- | --- | --- | --- | --- |
| O=C(O)CCCCCC[C@H]1C(=O)CC[C@@H]1COc1ccccc1 [Example 6, 7-((1R,5S)-2-Oxo-5-phenoxymethyl-cyclopentyl)-heptanoic acid] | 731 nM | 6250 nM | 2650 nM | – | – | – |
| O=C(O)CCC/C=C\C[C@@H]1[C@@H](COc2ccccc2)[C@H](O)C[C@H]1Cl [Example 8, (Z)-7-((1R,2S,3R,5R)-5-Chloro-3-hydroxy-2-phenoxymethyl-cyclopentyl)-hept-5-enoic acid] | 230 nM | 1260 nM | > 10000 nM | > 10000 nM | – | – |
| O=C(O)CCCCCC[C@@H]1[C@@H](COc2ccccc2)[C@H](O)C[C@H]1Cl [Example 10, 7-((1R,2S,3R,5R)-5-Chloro-3-hydroxy-2-phenoxymethyl-cyclopentyl)-heptanoic acid] | 123 nM | 1700 nM | > 10000 nM | > 10000 nM | – | – |
| O=C(O)CCC/C=C\C[C@@H]1[C@@H](COc2cc(Cl)cc(Cl)c2)[C@H](O)C[C@H]1Cl [Example 12, (Z)-7-[(1R,2S,3R,5R)-5-Chloro-2-(3,5-dichloro-phenoxymethyl)-3-hydroxy-cyclopentyl]-hept-5-enoic acid] | 0.8 nM | 12 nM | 940 nM | 940 nM | 0.8 nM | 12 nM |
| O=C(O)CCCCCC[C@@H]1[C@@H](COc2cc(Cl)cc(Cl)c2)[C@H](O)C[C@H]1Cl [Example 14, 7-[(1R,2S,3R,5R)-5-Chloro-2-(3,5-dichloro-phenoxymethyl)-3-hydroxy-cyclopentyl]-heptanoic acid] | 24 nM | 76 nM | 3040 nM | – | – | – |
| (Z)-7-((1R,2S,3R)-3-Hydroxy-5-oxo-2-phenoxymethyl-cyclopentyl)-hept-5-enoic acid [Example 4] | 5150 nM | 13400 nM | > 10000 nM | > 10000 nM | > 10000 nM | > 10000 nM |
| (Z)-7-((1R,5S)-2-Oxo-5-phenoxymethyl-cyclopent-3-enyl)-hept-5-enoic acid [Example 3] | > 10000 nM | > 10000 nM | > 10000 nM | > 10000 nM | 5150 nM | 13400 nM |
